Experimental data published in article PMC6332320, “Factors Influencing Oral Bioavailability of Thai Mango Seed Kernel Extract and Its Key Phenolic Principles” (Molecules, 2015).
“And” between values parts separate entries of the source, which are not always exact repeats. Identical values can stand only once. Like-named read-outs stand apart in the source and are kept apart here. Values belong to the compound of their own block, whether it stands above or below them.

Experiments:
[1] = cited from earlier work
[2] = human, in vivo, po; cited from earlier work
[3] = In vivo oral pharmacokinetic study in SD rats; set-up: species or system Sprague-Dawley rats; details: for MRT last / half-life / k el / Cmax / Tmax / AUC(0-t): Sprague-Dawley, rat, blood, po; for k el: read-out: Ke (converted); for AUC(0-t): read-out: AUC0–24h
Experimental: SD rats (five rats/group) were individually housed in stainless-steel metabolic cages, which allowed for the separation and collection of urine and feces. The rats were fasted overnight with ad libitum access to water prior to the day of the experiment. After a rat was anesthetized with isoflurane gas, the prepared suspension of test compound in an oral suspension vehicle was administered to the animals via oral gavage at a dose of 20 mg/kg for each compound in the mixture of MG and PGG or at 143 mg/kg MSKE, which is equivalent to approximate doses of 20 mg/kg PGG and 0.13 mg/kg MG. Subsequently, the rats’ tails were snipped near the tip to collect blood samples (approximately 50 µL), which were collected in heparinized tubes at 0, 0.50, 1, 2, 4, 6, 8 and 24 h. To investigate the excretion of phenolic compounds, urine and feces were collected between 0–24 h post-administration into tubes containing penicillin G (200 mg) and dry tubes, respectively, which were pre-weighted before use. After completing the pharmacokinetic study, the urine volume and dry feces weights were recorded, and all samples were stored at −80 °C until analysis.
The blood and urine samples were prepared according to our previously reported methods. The fecal samples were prepared by adding 30 mL methanol to the sample, and the mixture was then vortexed and sonicated for 30 min to obtain the fecal lysates, which were extracted via the same method.
The pharmacokinetic parameters of MG and PGG were calculated based on the non-compartmental method using WinNonlin 3.3 (Pharsight Corporation, Mountain View, CA, USA). The total mass of analytes was calculated according to the following equations (Equations (3)–(6)): The mass recovery (%) = (total mass in blood + total mass in urine + total mass in feces)/initial mass of analyte (3) Total mass in blood = C24h in blood × rat blood volume (70 mL/kg of body weight) (4) Total mass in urine = C0–24h in urine × volume of urine (0–24 h) (5) Total mass in feces = C0–24h in fecal lysate × volume of fecal lysate (30 mL) (6) where C24h in the blood is the concentration of analyte found in the blood sample at 24 h, and C0–24h in the urine and C0–24h in the fecal lysate are the concentrations of the analyte found in the urine and fecal samples, respectively, between 0 and 24 h.
A Waters UPLC system coupled with an ESI triple quadrupole mass spectrometer (QTRAP5500, AB Sciex, Foster City, CA, USA) was used to analyze MG and PGG in biological samples. The LC–MS/MS conditions were previously published. The UPLC conditions were Kinetex C18 column at 50 mm × 2.1 mm I.D. and 5 µm particle size (Phenomenex Inc.); mobile phase A at 0.1% formic acid in deionized water; mobile phase B at 100% acetonitrile; gradient at 0.0–0.5 min (0% B), 0.5–1.0 min (0%–30% B), 1.0–2.0 min (30%–90% B), 2.0–3.0 min (90% B), 3.0–3.5 min (90%–0% B) and 3.5–5.0 min (0% B); flow rate at 0.5 mL/min; column temperature at 40 °C; sample temperature at 20 °C; and injection volume at 10 µL. The mass spectrometer employed an MRM method in the negative ion mode. The instrument-dependent parameters for obtaining the mass spectra were set as follows: ionspray voltage at −4.5 kV; ion source temperature at 550 °C; gas 1 at 60 psi; gas 2 at 60 psi; and curtain gas at 20 psi. The unit mass resolution was set in both mass-resolving quadruples Q1 and Q3. Because of the absence of authentic standard for the glucuronide and sulfate metabolites of MG and PGG, qualification of the metabolites in the biological samples was accomplished using the compound-dependent parameters for MG and PGG.

[4] = rats, i.p., mixture of MG and PGG 20 mg/kg each, cited from earlier work
[5] = MSKE 143 mg/kg (20 mg/kg PGG and 0.13 mg/kg MG)
[6] = mixture of MG and PGG 20 mg/kg each
[7] = mixture 20 mg/kg, p.o. vs i.p. (ref 14)
[8] = p.o., MSKE 143 mg/kg (20 mg/kg PGG and 0.13 mg/kg MG)
[9] = p.o., mixture of MG and PGG 20 mg/kg each

Structure (SMILES): O=C(O)c1cc(O)c(O)c(O)c1 [GA, Gallic acid]
- Cmax ([1]; rat, in vivo, po, 100 umol/kg): 710 nM
- elimination t1/2 ([1]; rat, in vivo, po, 100 umol/kg): 0.4 h
- Tmax ([1]; rats, p.o., GA as pure compound or component of rhubarb and grape seed extract, plasma): approximately 60 min
- t1/2 [2]: ~1 h

- MRT last [3, 5]: 11.1 ± 0.6 h
- half-life [3, 5]: 65.2 ± 49.4 h
- k el [3, 5]: 4.17e-06 s⁻¹
- MRT last [3, 6]: 8.69 ± 1.57 h
- half-life [3, 6]: 24.8 ± 15.7 h
- k el [3, 6]: 1e-05 s⁻¹
- Cmax [3, 5]: 240 ± 60 nM
- Tmax [3, 5]: 0.5 h
- AUC(0-t) [3, 5]: 3.57 ± 0.79 µM·h
- Cmax [3, 6]: 1130 ± 1060 nM
- Tmax [3, 6]: 2.3 ± 1.64 h
- AUC(0-t) [3, 6]: 6.47 ± 0.75 µM·h
- AUC0–24h, oral lower than intraperitoneal [3, 7]: ~17 folds
- Cmax, oral lower than intraperitoneal [3, 7]: ~31 folds
- Tmax, oral compared with intraperitoneal (slower absorption) [3, 7]: approximately 3 folds
- Vd, oral higher than intraperitoneal [3, 7]: approximately 19 folds
- t1/2, oral longer than intraperitoneal [3, 7]: ~1.4 folds
- CL [3, 8]: 35.2 ± 21 mL/min/kg
- Vd [3, 8]: 135.39 ± 21.94 L/kg
- CL [3, 9]: 5534.3 ± 1662 mL/min/kg
- time of second maximum peak of blood concentration (double-peak profile) [3, 9]: 4 h
Structure (SMILES): COC(=O)c1cc(O)c(O)c(O)c1 [MG, methyl gallate]
- Cmax ([4]; blood): 35000 nM and 34700 nM
- Tmax ([4]; blood): 0.85 ± 0.70 h
- CL [4]: 2665.2 ± 1268 mL/min/kg
- Ke [4]: 0.056 ± 0.032 h⁻¹
- MRTlast [4]: 8.71 ± 2.53 h
- Vd [4]: 530.95 ± 247.54 L/kg
- t1/2 [4]: 17.50 ± 12.25 h
